Where two headings read alike, the source gives them in different places.
Legend:
[1] = test system: Escherichia coli K-12 MG1655 and evolved isolates; format: cell-based; conditions: 55 g/L malic acid
Procedure, shortened: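 Wild-type MG1655 and evolved isolates, precultured overnight in M9 + 1% glucose at 37 °C, were diluted into M9 + 1% glucose. Growth at 37 °C, 225 rpm, scanned every 15 min; pixel values calibrated to OD600. Diacids tested as sodium salts or neutralized to pH 7.0.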

[2] = test system: Escherichia coli K-12 MG1655; assay: Growth of K-12 MG1655 in varying concentrations of fumaric, itaconic, malic and succinic acid, Growth Profiler; format: cell-based
Experimental: Five colonies from wild-type K-12 MG1655 and 10 individual colonies deriving from each population were inoculated into 300 μL M9+1% glucose in 96 well deepwell plates and incubated in a 300 rpm plate shaker at 37° C. The next day, cells were diluted 10× in M9+1% glucose and 30 μL was transferred into clear-bottomed 96 well half-deepwell plates (with rectangular wells) containing M9+1% glucose and M9+1% glucose+52.78 g/L glutaric acid or 55.56 g/L adipic acid, such that the final concentration of glutaric acid or adipic acid was 47.5 g/L or 50 g/L, respectively. In addition, cryogenic glycerol stocks of the overnight culture were saved in a 96 well plate format. Half deepwell plates were incubated at 37° C. with 225 rpm shaking in a Growth Profiler (Enzyscreen), with optical scans of the plates taken at 15 minute intervals. Green pixel values integrated over a 1 mm diameter circular area in each well were converted to OD600 values using a previously determined calibration between OD600 and green pixel values.
Additionally, each evolved isolate was tested for cross-tolerance toward other dicarboxylic acids of interest. […] All diacids tested were either the neutral sodium salts, or the free diacid was neutralized with sodium hydroxide to pH 7.0 for testing.

O=C(O)CC(O)C(=O)O (centres unmarked) [malic acid]
growth rate μ (mean) ([1]; strain ADIP1-1): 0.333 h⁻¹ | lag time tlag (mean) ([1]; strain ADIP1-1): 12.8 h | growth rate μ (mean) ([1]; strain ADIP1-9): 0.336 h⁻¹ | lag time tlag (mean) ([1]; strain ADIP1-9): 10.7 h | growth rate μ (mean) ([1]; strain ADIP2-5): 0.338 h⁻¹ | lag time tlag (mean) ([1]; strain ADIP2-5): 17.9 h | growth rate μ (mean) ([1]; strain ADIP2-6): 0.348 h⁻¹ | lag time tlag (mean) ([1]; strain ADIP2-6): 16.8 h | growth rate μ (mean) ([1]; strain ADIP2-10): 0.347 h⁻¹ | lag time tlag (mean) ([1]; strain ADIP2-10): 16.8 h | growth rate μ (mean) ([1]; strain ADIP3-2): 0.318 h⁻¹ | lag time tlag (mean) ([1]; strain ADIP3-2): 10.7 h | growth rate μ (mean) ([1]; strain ADIP3-4): 0.347 h⁻¹ | lag time tlag (mean) ([1]; strain ADIP3-4): 9.9 h | growth rate μ (mean) ([1]; strain ADIP3-8): 0.329 h⁻¹ | lag time tlag (mean) ([1]; strain ADIP3-8): 11.4 h | growth rate μ (mean) ([1]; strain ADIP4-1): 0.275 h⁻¹ | lag time tlag (mean) ([1]; strain ADIP4-1): 12.1 h | growth rate μ (mean) ([1]; strain ADIP4-8): 0.238 h⁻¹ | lag time tlag (mean) ([1]; strain ADIP4-8): 13.4 h | growth rate μ (mean) ([1]; strain ADIP5-2): 0.299 h⁻¹ | lag time tlag (mean) ([1]; strain ADIP5-2): 10.1 h | growth rate μ (mean) ([1]; strain ADIP5-6): 0.404 h⁻¹ | lag time tlag (mean) ([1]; strain ADIP5-6): 10.2 h | growth rate μ (mean) ([1]; strain ADIP6-3): 0.295 h⁻¹ | lag time tlag (mean) ([1]; strain ADIP6-3): 11.6 h | growth rate μ (mean) ([1]; strain ADIP6-9): 0.250 h⁻¹ | lag time tlag (mean) ([1]; strain ADIP6-9): 12.7 h | growth rate μ (mean) ([1]; strain ADIP6-10): 0.323 h⁻¹ | lag time tlag (mean) ([1]; strain ADIP6-10): 10.0 h | growth rate μ (mean) ([1]; strain ADIP7-2): 0.329 h⁻¹ | lag time tlag (mean) ([1]; strain ADIP7-2): 10.3 h | growth rate μ (mean) ([1]; strain ADIP7-5): 0.326 h⁻¹ | lag time tlag (mean) ([1]; strain ADIP7-5): 10.2 h | growth rate μ (mean) ([1]; strain ADIP8-3): 0.194 h⁻¹ | lag time tlag (mean) ([1]; strain ADIP8-3): 14.4 h | growth rate μ (mean) ([1]; strain ADIP8-7): 0.202 h⁻¹ | lag time tlag (mean) ([1]; strain ADIP8-7): 14.9 h | growth rate μ (mean) ([1]; strain ADIP8-10): 0.202 h⁻¹ | lag time tlag (mean) ([1]; strain ADIP8-10): 14.2 h | growth rate μ (mean) ([1]; strain GLUT1-3): 0.294 h⁻¹ | lag time tlag (mean) ([1]; strain GLUT1-3): 13.5 h | growth rate μ (mean) ([1]; strain GLUT1-9): 0.259 h⁻¹ | lag time tlag (mean) ([1]; strain GLUT1-9): 15.3 h | growth rate μ (mean) ([1]; strain GLUT1-10): 0.286 h⁻¹ | lag time tlag (mean) ([1]; strain GLUT1-10): 19.2 h | growth rate μ (mean) ([1]; strain GLUT2-1): 0.273 h⁻¹ | lag time tlag (mean) ([1]; strain GLUT2-1): 13.7 h | growth rate μ (mean) ([1]; strain GLUT2-9): 0.270 h⁻¹ | lag time tlag (mean) ([1]; strain GLUT2-9): 12.5 h | growth rate μ (mean) ([1]; strain GLUT2-10): 0.282 h⁻¹ | lag time tlag (mean) ([1]; strain GLUT2-10): 12.2 h | growth rate μ (mean) ([1]; strain GLUT3-5): 0.257 h⁻¹ | lag time tlag (mean) ([1]; strain GLUT3-5): 15.4 h | growth rate μ (mean) ([1]; strain GLUT3-7): 0.234 h⁻¹ | lag time tlag (mean) ([1]; strain GLUT3-7): 15.5 h | growth rate μ (mean) ([1]; strain GLUT3-9): 0.252 h⁻¹ | lag time tlag (mean) ([1]; strain GLUT3-9): 20.5 h | growth rate μ (mean) ([1]; strain GLUT4-1): 0.264 h⁻¹ | lag time tlag (mean) ([1]; strain GLUT4-1): 15.9 h | growth rate μ (mean) ([1]; strain GLUT4-4): 0.264 h⁻¹ | lag time tlag (mean) ([1]; strain GLUT4-4): 16.5 h | growth rate μ (mean) ([1]; strain GLUT4-10): 0.250 h⁻¹ | lag time tlag (mean) ([1]; strain GLUT4-10): 15.6 h | growth rate μ (mean) ([1]; strain GLUT5-4): 0.272 h⁻¹ | lag time tlag (mean) ([1]; strain GLUT5-4): 15.3 h | growth rate μ (mean) ([1]; strain GLUT5-5): 0.275 h⁻¹ | lag time tlag (mean) ([1]; strain GLUT5-5): 16.6 h | growth rate μ (mean) ([1]; strain GLUT5-9): 0.246 h⁻¹ | lag time tlag (mean) ([1]; strain GLUT5-9): 16.4 h | growth rate μ (mean) ([1]; strain GLUT6-4): 0.251 h⁻¹ | lag time tlag (mean) ([1]; strain GLUT6-4): 14.5 h | growth rate μ (mean) ([1]; strain GLUT6-5): 0.241 h⁻¹ | lag time tlag (mean) ([1]; strain GLUT6-5): 13.8 h | growth rate μ (mean) ([1]; strain GLUT6-10): 0.245 h⁻¹ | lag time tlag (mean) ([1]; strain GLUT6-10): 14.8 h | growth rate μ (mean) ([1]; strain GLUT7-2): 0.275 h⁻¹ | lag time tlag (mean) ([1]; strain GLUT7-2): 16.1 h | growth rate μ (mean) ([1]; strain GLUT7-6): 0.247 h⁻¹ | lag time tlag (mean) ([1]; strain GLUT7-6): 21.9 h | growth rate μ (mean) ([1]; strain GLUT7-7): 0.185 h⁻¹ | lag time tlag (mean) ([1]; strain GLUT7-7): 19.1 h | growth rate μ (mean) ([1]; strain GLUT8-5): 0.180 h⁻¹ | lag time tlag (mean) ([1]; strain GLUT8-5): 15.8 h | growth rate μ (mean) ([1]; strain GLUT8-6): 0.208 h⁻¹ | lag time tlag (mean) ([1]; strain GLUT8-6): 32.7 h | growth rate μ (mean) ([1]; strain GLUT8-9): 0.192 h⁻¹ | lag time tlag (mean) ([1]; strain GLUT8-9): 47.7 h | growth rate μ (mean) ([1]; strain MG1655 (Table 26)): 0.235 h⁻¹ | lag time tlag (mean) ([1]; strain MG1655 (Table 26)): 17.1 h | growth rate μ (mean) ([1]; strain MG1655 (Table 27)): 0.222 h⁻¹ | lag time tlag (mean) ([1]; strain MG1655 (Table 27)): 16.5 h | μ (mean) ([2]; growth rate of K-12 MG1655, 10 g/L diacid (sodium salt)): 0.686 h^1 | μ (mean) ([2]; growth rate of K-12 MG1655, 20 g/L diacid (sodium salt)): 0.639 h^1 | μ (mean) ([2]; growth rate of K-12 MG1655, 30 g/L diacid (sodium salt)): 0.526 h^1 | μ (mean) ([2]; growth rate of K-12 MG1655, 40 g/L diacid (sodium salt)): 0.410 h^1 | μ (mean) ([2]; growth rate of K-12 MG1655, 50 g/L diacid (sodium salt)): 0.287 h^1 | μ (mean) ([2]; growth rate of K-12 MG1655, 60 g/L diacid (sodium salt)): 0.154 h^1 | tlag (mean) ([2]; lag time of K-12 MG1655, 10 g/L diacid (sodium salt)): 5.9 h | tlag (mean) ([2]; lag time of K-12 MG1655, 20 g/L diacid (sodium salt)): 6.6 h | tlag (mean) ([2]; lag time of K-12 MG1655, 30 g/L diacid (sodium salt)): 8.0 h | tlag (mean) ([2]; lag time of K-12 MG1655, 40 g/L diacid (sodium salt)): 11.1 h | tlag (mean) ([2]; lag time of K-12 MG1655, 50 g/L diacid (sodium salt)): 16.9 h | tlag (mean) ([2]; lag time of K-12 MG1655, 60 g/L diacid (sodium salt)): 28.3 h

From US20230139445A1, “BACTERIAL CELLS WITH IMPROVED TOLERANCE TO DIACIDS” (priority 2016, published 2023)
